Experimental data as given in patent US9956199B2, “Chromane-like cyclic prenylflavonoids for the medical intervention in neurological disorders” (priority 2011, dated 2018).
“Also recorded” adds a separate entry of the source.

Experiments:
[1] = system: MEF E16 cells; experiment: immunocytochemical staining for DCX and Map2ab in MEF cultures (neuronal differentiation); type: cell-based, mouse; details: Neurobasal plus 1% FCS, 10 μM, 7 days; for number of DCX/Map2ab double positive cells: FIG. 3B
Description: Following the results from the Luciferase assay described in Example 17, the inventors examined the ability of compounds according to the invention and reference compounds to promote differentiation of MEF E16 cells, using immunocytochemical staining with DCX and Map2ab antibodies.
Compound 1a at 10 and 100 μM was analyzed for its effect on the expression of the neuronal specific markers DCX and Map2ab using primary fetal mouse brain derived cells stimulated in DMEM-KO media.
Mouse embryonic day 16 forebrain cells were prepared as described in Example 17. Before seeding the cells, glass-coverslips were coated and prepared. Glass-coverslips (13 mm) (Menzel GmbH, Braunschweig, Germany) were incubated in 1 M HCl at 65° C. overnight and stored in isopropanol until further use. Coverslips were put into 24-well test plates and air-dried. Subsequently coverslips were incubated for 1 h with 100 μg/ml Poly-L-ornithin solution at 37° C. After washing three times with sterile water coverslips were incubated with 5 μg/ml Laminin solution for 2 h. Immediately after removal of the Laminin solution cells were seeded (40.000 cells/well) in DMEM-KO plus supplement or in NB-B27 plus 1% FCS medium. One day later, cells had attached to the substrate. Cells were stimulated with the above-mentioned substances (in DMEM-KO plus supplement medium: 10 μM and 100 μM; in NB-B27 plus 1% FCS medium: 10 μM) for 3 or 7 days. In the 7 day group, medium including the substances was replaced after three days. Cultures were maintained at 37° C. in a humidified incubator with 5% CO2.
Cells were fixed with phosphate-buffered 4% paraformaldehyde (Sigma-Aldrich, Taufkirchen, Germany). […] The specimens were incubated overnight at 4° C. with the primary antibodies at the following dilutions in FSGB: rabbit anti Doublecortin (DCX) 1:500 (NEB, Frankfurt, Germany) and mouse anti-Map 2a+2b 1:400 (Sigma-Aldrich, Taufkirchen, Germany). After washing three times with FSGB, cells were incubated with the species-specific secondary antibodies, which were conjugated to fluorochromes, for 2 hours in the dark at room temperature. To remove unbound secondary antibodies, cells were washed again with PBS. Nuclear counterstaining was performed with 4′,6′-diamidino-2-phenylindole dihydrochloride hydrate (DAPI) at […] (Sigma Aldrich, Taufkirchen, Germany). Finally, cells were washed again three times with PBS and mounted on microscope slides using Prolong Antifade reagent (Invitrogen, Oreg., USA).
The immunostainings were examined using Olympus IX81 inverted research microscope and the software Volocity 5.3.1. To quantify the number of cells, five indiscriminately chosen visual fields per coverslip were selected under a focus of 40 times. The total number of cells (DAPI positive cells), the number of DCX positive, Map2ab positive, and DCX/Map2ab double positive cells was determined.

[2] = system: promoter of the neuronal precursor specific gene doublecortin (DCX); experiment: DCX promoter firefly-luciferase assay in primary fetal mouse brain derived (MEF) cells; type: cell-based; details: for stimulatory effect on the DCX promoter activity (FF/R relative to control): DCX promoter-luciferase transfected MEF cells, stimulated three days; for effect on DCX promoter induction: 10 μM, MEF cells, three days
Description: Primary mouse embryonic day 16 forebrain (MEF) cultures were prepared as follows. Pregnant NMRI mice (Charles River Laboratories, Sulzfeld, Germany) were sacrificed and the uteri promptly removed and immersed in ice-cold Dulbecco's phosphate buffered saline solution—DPBS (PAA, Pasching, Austria). Eight embryonic day (E) 16 embryos were released from the uteri; forebrains were taken out, separated from surrounding tissues and mechanically dissociated using a razor blade. Subsequently the dissociated cells were collected by 5 min centrifugation at 120×g. The pellet was resuspended in 10 ml PPD-solution containing 0.01% papain (Worthington, England), 0.1% Dispasell (Roche, Basel, Switzerland), 0.01% DNasel (Worthington, England), 12.4 mM MgSO4 dissolved in HBSS w/o Ca/Mg (PAA, Pasching, Austria). The cell suspension was incubated at 37° C. and triturated every ten minutes for three times. The cell suspension was then centrifuged at 120×g for 5 minutes and washed three times in Neurobasal medium (Gibco BRL, Germany) supplemented with 2% (v/v) B27 (Gibco BRL, Karlsruhe), 2 mM L-glutamine, 100 μg/ml Penicillin/Streptomycin (PAN Biotech GmbH, Aidenbach, Germany). Finally, the cell preparation was resuspended in 12 ml Neurobasal medium supplemented with B27 (Gibco BRL, Karlsruhe), 2 mM L-glutamine, 100 μg/ml Penicillin/Streptomycin (PAN Biotech GmbH, Aidenbach, Germany), 20 ng/ml Epidermal Growth Factor—rhEGF, 20 ng/ml Fibroblast Growth Factor—rhFGF (R&D Systems, Wiesbaden-Nordenstadt, Germany) and 2 μg/ml Heparin (Sigma-Aldrich, Taufkirchen, Germany) (NB plus all), seeded in one T75 flask (TPP, Switzerland) and maintained in a humidified atmosphere at 37° C. and 5% CO2. […] On this day (day 2), half of the medium was refreshed and on day 4 cells were passaged. To passage the cells, the culture medium containing the floating neurospheres was collected in a 15 ml tube (Corning, Lowell, USA) and centrifuged at 120×g for 5 min. For dissociation, the pellet was resuspended in 500 μl Accutase (PAA, Pasching, Austria) and triturated using a 1 ml pipette. The cell suspension was incubated at 37° C. for 10 min, and then, 10 ml media were added. Cell number was determined by Trypan blue exclusion.
Luciferase assays were performed using a noncommercial dual luciferase enzyme assay system (Dyer et al., 2000, Anal Biochem). In this system, a co-transfection with pDCX-Luci and a control vector driving Renilla-luciferase under the CMV promoter was performed. The two different luciferases have different specific substrates and, therefore, the DCX regulatory region driven firefly luciferase activity can be distinguished from CMV driven Renilla-luciferase. For analysis, the firefly luciferase activity was normalized against the CMV driven Renilla-luciferase. For each transfection reaction, a volume containing two million cells was transferred into a 15 ml tube (Corning, Lowell, USA), centrifuged at 120×g for 5 min to pellet the cells and resuspended in 100 μl Amaxa Mouse Neural Stem Cell Nucleofector Kit (Lonza, Kln, Germany). Then, pDCX-Luci (Karl, 2005) and pRL3 (Promega, Mannheim, Germany) (5 μg each) were added and the entire reaction mix was transferred into an Amaxa transfection cuvette. Transfection was done using the A-033 program in the Amaxa Nucleofector II (Lonza, Kln, Germany). Transfected cells were then pipetted into 20 ml of DMEM knockout medium (Gibco BRL, Germany) containing 20% serum replacement supplement (PAN Biotech GmbH, Aidenbach, Germany), 2 mM L-glutamine (PAN Biotech GmbH, Aidenbach, Germany) and 100 μg/ml Penicillin/Streptomycin (PAN Biotech GmbH, Aidenbach, Germany) (DMEM-KO plus supplements) in a 50 ml tube (Corning, Lowell, USA). From this resulting cell suspension, 200 μl per well were plated in Poly-Ornithine/Laminin coated 96-well-luciferase plates (Wimmer & Macho, Wels, Austria) in a cell density of 20.000 cells per well, as described herein below.

Row | Structure (SMILES) | number of DCX/Map2ab double positive cells [1] | stimulatory effect on the DCX promoter activity (FF/R relative to control) [2] | effect on DCX promoter induction [2] | number of DCX positive cells ([1]; FIG. 3A)
1 | Cc1c(C)c2c(c(C)c1O)CCC(C)(CCCC(C)CCCC(C)CCCC(C)C)O2 (racemic) [tocopherol, 2,5,7,8-tetramethyl-2-(4,8,12 trimethyltridecyl)chroman-6-ol] | marginally increase |  |  | 
2 | CC(C)=CCc1c(O)cc2c(c1O)C(=O)CC(c1ccc(O)cc1)O2 (centres unmarked) [6-prenylnaringenin, 5,7-dihydroxy-2-(4-hydroxyphenyl)-6-(3-methylbut2-en-1yl)chroman-4-one] | Good results |  |  | 
3 | CC(C)=CCc1c(O)cc(O)c2c1OC(c1ccc(O)cc1)CC2=O (centres unmarked) [8-prenylnaringenin, 5,7-dihydroxy-2-(4-hydroxyphenyl)-8-(3-methylbut2-en-1yl)chroman-4-one] | Good results |  |  | 
4 | COc1cc2c(c(O)c1C(=O)CCc1ccc(O)cc1)CCC(C)(C)O2 [Compound 1c, 1-(5-hydroxy-7-methoxy-2,2-dimethylchroman-6-yl)-3-(4-hydroxyphenyl)propan-1-one] |  | significantly and strongly induce; also recorded: very strong and significant stimulatory effect |  | 
5 | COc1cc2c(c(O)c1C(=O)/C=C/c1ccc(O)c(O)c1)C=CC(C)(C)O2 [Compound 1e, (2E)-1-(5-Hydroxy-7-methoxy-2,2-dimethyl-2H-chromen-6-yl)-3-(3,4-dihydroxyphenyl)prop-2-en-1-one] |  | significantly and strongly induce; also recorded: very strong and significant stimulatory effect |  | 
6 | COc1cc2c(c(O)c1C(=O)/C=C/c1ccc3c(c1)OCO3)C=CC(C)(C)O2 [Compound 1f, (2E)-3-(benzo[d][1,3]dioxol-6-yl)-1-(5-hydroxy-7-methoxy-2,2-dimethyl-2H-chromen-6-yl)prop-2-en-1-one] |  | significantly and strongly induce; also recorded: very strong and significant stimulatory effect |  | 
7 | COc1cc2c(c(O)c1C(=O)/C=C/c1ccc(O)cc1)C=CC(C)(CCC=C(C)C)O2 (centres unmarked) [Compound 1g, (2E)-1-(5-hydroxy-7-methoxy-2-methyl-2-(4-methylpent-3-enyl)-2H-chromen-6-yl)-3-(4-hydroxyphenyl)prop-2-en-1-one] |  |  | good results | 
8 | CC1(C)C=Cc2c(cc3c(c2O)C(=O)CC(c2ccc(O)cc2)O3)O1 (centres unmarked) [Compound 2a, 5-Hydroxy-2-(4-hydroxy-phenyl)-8,8-dimethyl-2,3-dihydro-8H-pyrano[3,2-g]chromen-4-one] |  | stimulatory effect on the DCX promoter activity was also observed | good results | 
9 | CC1(C)C=Cc2c(cc(O)c3c2OC(c2ccc(O)cc2)CC3=O)O1 (centres unmarked) [Compound 3b, 5-Hydroxy-2-(4-hydroxy-phenyl)-8,8-dimethyl-2,3-dihydro-8H-pyrano[2,3-f]chromen-4-one] |  |  | good results | 
10 | COc1cc2c(c(O)c1C(C)=O)C=CC(C)(C)O2 [ENDF4, 1-(5-hydroxy-7-methoxy-2,2-dimethyl-2H-chromen-6-yl)-ethanone] | Good results; also recorded: increased slightly more | did not have any significant stimulatory effect |  | strongly enhanced the number of DCX positive cells
11 | Cc1c(C)c2c(c(C)c1O)CCC(C)(C)O2 [chromanol, 2,2,5,7,8-Pentamethyl-6-chromanol, reference compound] | marginally increase | did not have any significant stimulatory effect |  | 
12 | COc1cc(O)c(CC=C(C)C)c2c1C(=O)CC(c1ccc(O)cc1)O2 (centres unmarked) [isoxanthohumol, 7-hydroxy-2-(4-hydroxyphenyl)-5-methoxy-8-(3-methylbut-2-en-1-yl)chroman-4-one, reference compound] | Good results | did not have any significant stimulatory effect |  | 
